From US5948796A, “Benzo[B]thiophene compounds, intermediates, formulations, and methods” (Eli Lilly and Company, priority 1997, dated 1999)
Where a name gives a salt, the structure may show the parent alone.

Experiments:
Eosinophil peroxidase = test: Uterine Eosinophil Peroxidase (EPO) Assay in ovariectomized rats; format: in vivo, female Sprague Dawley rats; details: daily for 4 days, OVX rats, * p < 0.05
Method: (§1) In the examples illustrating the methods, a post-menopausal model was used in which effects of different treatments upon circulating lipids were determined.
(§2) Seventy-five day old female Sprague Dawley rats (weight range of 200 to 225 g) are obtained from Charles River Laboratories (Portage, Mich.). The animals are either bilaterally ovariectomized (OVX) or exposed to a Sham surgical procedure at Charles River Laboratories, and then shipped after one week. Upon arrival, they are housed in metal hanging cages in groups of 3 or 4 per cage and have ad libitum access to food (calcium content approximately 0.5%) and water for one week. Room temperature is maintained at 22.2°±1.7° C. with a minimum relative humidity of 40%. The photoperiod in the room is 12 hours light and 12 hours dark.
(§3) Dosing Regimen Tissue Collection. After a one week acclimation period (therefore, two weeks post-OVX) daily dosing with test compound is initiated. 17α-ethynyl estradiol or the test compound are given orally, unless otherwise stated, as a suspension in 1% carboxymethylcellulose or dissolved in 20% cyclodextrin. Animals are dosed daily for 4 days. Following the dosing regimen, animals are weighed and anesthetized with a ketamine: Xylazine (2:1, V:V) mixture and a blood sample is collected by cardiac puncture. The animals are then sacrificed by asphyxiation with CO2, the uterus is removed through a midline incision, and a wet uterine weight is determined.
Uterine Eosinophil Peroxidase (EPO) Assay. Uteri are kept at 4° C. until time of enzymatic analysis. The uteri are then homogenized in 50 volumes of 50 mM Tris buffer (pH-8.0) containing 0.005% Triton X-100. Upon addition of 0.01% hydrogen peroxide and 10 mM O-phenylenediamine (final concentrations) in Tris buffer, increase in absorbance is monitored for one minute at 450 nm. The presence of eosonophils in the uterus is an indication of estrogenic activity of a compound. The maximal velocity of a 15 second interval is determined over the initial, linear portion of the reaction curve.
(§4) In accordance with the above procedures, compounds of the present invention and ethynyl estradiol (EE2) in 20% hydroxypropyl β-cyclodextrin are orally administered to test animals.

[1] = tested on: ovariectomized (OVX) female Sprague Dawley rats, uterus; test: Uterine weight in ovariectomized rats (post-menopausal model); format: in vivo; details: daily for 4 days, * p < 0.05
Method: as §1, §2, §3, §4

serum cholesterol = test: Cholesterol Analysis (serum cholesterol in ovariectomized rats); format: in vivo, female Sprague Dawley rats; details: daily for 4 days, OVX rats, * p < 0.05
Method: as §1, §2, §3
Cholesterol Analysis. Blood samples are allowed to clot at ambient temperature for 2 hours, and serum is obtained following centrifugation for 10 minutes at 3000 rpm. Serum cholesterol is determined using a Boehringer Mannheim Diagnostics high performance cholesterol assay. Briefly, the cholesterol is oxidized to cholest-4-en-3-one and hydrogen peroxide. The hydrogen peroxide is then reacted with phenol and 4-aminophenazone in the presence of peroxidase to produce a p-quinone imine dye, which is read spectrophotemetrically at 500 nm. Cholesterol concentration is then calculated against a standard curve.
as §4

[2] = tested on: MCF-7 breast adenocarcinoma cells; test: MCF-7 Proliferation Assay; format: cell-based; details: Homo sapiens, MCF7; MCF-7 cells; 48 hours; tritiated thymidine pulse 4 hours
Method: As evidence of the current invention treat estrogen dependent cancer, the following assay was performed.
MCF-7 Proliferation Assay
MCF-7 breast adenocarcinoma cells (ATCC HTB 22) were maintained in MEM (minimal essential medium, phenol red-free, Sigma, St. Louis, Mo.) supplemented with 10% fetal bovine serum (FBS) (V/V), L-glutamine (2 mM), sodium pyruvate (1 mM), HEPES {(N-[2-hydroxyethyl]piperazine-N'-[2-ethanesulfonic acid]10 mM}, non-essential amino acids and bovine insulin (1 ug/mL) (maintenance medium). Ten days prior to assay, MCF-7 cells were switched to maintenance medium supplemented with 10% dextran coated charcoal stripped fetal bovine serum (DCC-FBS) assay medium) in place of 10% FBS to deplete internal stores of steroids. MCF-7 cells were removed from maintenance flasks using cell dissociation medium [Ca++/Mg++ free HBSS (phenol red-free) supplemented with 10 mM HEPES and 2 mM EDTA]. Cells were washed twice with assay medium and adjusted to 80,000 cells/mL. Approximately […] (8,000 cells) were added to flat-bottom microculture wells (Costar 3596) and incubated at 37° C. in a 5% CO2 humidified incubator for 48 hours to allow for cell adherence and equilibration after transfer. […] Samples were counted by liquid scintillation using a Wallac BetaPlace β counter. […]

SMILES | Uterine EPO (Vmax) (Eosinophil peroxidase; dose printed "0." mg/kg PO) | Uterine Wt. (% Inc.), % increase versus the ovariectomized controls ([1]; dose printed "0." mg/kg PO) [%] | Uterine EPO (Vmax) (Eosinophil peroxidase; 0.1 mg/kg PO) | Uterine EPO (Vmax) (Eosinophil peroxidase; 1 mg/kg PO) | Uterine EPO (Vmax) (Eosinophil peroxidase; 10 mg/kg PO) | Uterine Wt. (% Inc.), % increase versus the ovariectomized controls ([1]; 0.1 mg/kg PO) [%] | Uterine Wt. (% Inc.), % increase versus the ovariectomized controls ([1]; 1 mg/kg PO) [%] | Uterine Wt. (% Inc.), % increase versus the ovariectomized controls ([1]; 10 mg/kg PO) [%] | Serum Cholesterol (% Dec.), decrease versus ovariectomized controls (serum cholesterol; 0.1 mg/kg PO) [%] | Serum Cholesterol (% Dec.), decrease versus ovariectomized controls (serum cholesterol; 1 mg/kg PO) [%] | Serum Cholesterol (% Dec.), decrease versus ovariectomized controls (serum cholesterol; 10 mg/kg PO) [%] | IC50 [2] [µM]
C#C[C@]1(O)CC[C@H]2[C@@H]3CCc4cc(O)ccc4[C@H]3CC[C@@]21C [EE2, 17α-ethynyl estradiol, reference compound] | 142.4 | 171.2 | – | – | – | – | – | – | – | – | – | –
COc1ccc(-c2sc3cc(C)ccc3c2C(=O)c2ccc(OCCN3CCCCC3)cc2)cc1 [Example 1, [2-(4-Methoxyphenyl)-6-methylbenzo[b]thien-3-yl}[4-[2-(1-piperdinyl)ethoxy]phenyl]methanone Hydrochloride] | – | – | 1.4 | 1.6 | 5.2 | -11.4 | -4.6 | 2.1 | -20.3 | 17.2 | 34.8 | 0.5
Cc1ccc2c(C(=O)c3ccc(OCCN4CCCCC4)cc3)c(-c3ccc(O)cc3)sc2c1 [Example 2, [2-(4-Hydroxyphenyl)-6-methylbenzo[b]thien-3-yl}[4-[2-(1-piperdinyl)ethoxy]phenyl]methanone Hydrochloride] | – | – | 2.0 | 2.8 | 2.9 | -9.0 | 23.9 | 29.0 | 16.9 | 33.8 | 21.6 | 0.1
